These results are taken from US20240252508A1, “Novel glucose uptake inhibitors for use in the treatment of cancer” (NOVELYEAST BV, priority 2021, published 2024).

The test system of one assay is tps1Δ cells. Kind of assay: Growth rescue of tps1Δ strain on glucose (growth curves, 2% galactose medium). In kind it is cell-based, S. cerevisiae. The settings on record: 100 μM compound, 2.5 mM glucose. As for the experimental part: Growth curves were made by measuring OD595 in a 96-well plate using the Multiskan™ FC Microplate Photometer (Thermo Fisher Scientific). Typically, for tps1Δ rescue experiments (FIG. 2b-e; FIG. 4a), cells were (pre)grown in Complete Synthetic medium containing 2% galactose.
Compounds were always added 10 min prior to glucose addition to ensure maximal interaction between the cells and compounds. Cells originating from the preculture were harvested, washed in medium without sugar, after which they were resuspended to an OD of 0.1 in 200 μL of the appropriate medium. At least three technical replicates were included per condition. OD595 was measured at 30° C. every 30 min with a 10-min shaking interval.

Assay [1] has as its system A549 lung adenocarcinoma cells. Kind of assay: A549 cell proliferation / growth inhibition. Format: cell-based, human. To be noted: for Selected from primary screen for growth inhibition of A549 cells at 50 μM: 50 μM compound, 1 mM glucose; for Selected for having an IC50 ratio (10 mM glucose: 1 mM glucose) of A549 growth higher than WBC-A: IC50 on 10 mM vs 1 mM glucose, compared with WBC-A. As for the experimental part: The analog library (n=203) was screened for inhibition of growth of A549 cells on RPMI medium supplemented with 1 mM glucose. DMSO (green bar) and WBC-A (orange bar) served as negative and positive control, respectively. In addition, the reference glucose transport inhibitors STF-31, Fasentin, BAY-876, WZB-117 and Cytochalasin B were included and indicated in red. Compounds were added at 50 μM concentration. Number of cells was determined by counting nuclei stained by Hoechst after three days of growth.
For both adherent A549 and MCF10Δ H-RAS^V12 cell lines, growth curves were established using the IncuCyte® ZOOM technology. By collecting phase contrast images, the IncuCyte® software provides a calculated confluency percentage from which growth curves can be deducted.
Cells were seeded at a density of 1000-1500 cells/well in a Nunc-Edge™ 96-well plate (Thermo Fisher Scientific) and growth was typically measured over 3 to 5 days. For the measurement of apoptosis induction using the MCF10Δ H-RAS^V12 cell line, the IncuCyte® Caspase-3/7 green dye was added to the medium in the recommended concentration at the beginning of the growth curve experiment. Apoptosis was detected by taking fluorescent images by excitation at 488 nm followed by IncuCyte® software analysis. Cell growth of the KMS-12-PE multiple myeloma cell line, which grows in suspension, was measured by manual cell counting. Cells were initially seeded at a density of 10^4 cells/well and incubated for 4 days after which the cell number was counted. For all cell lines, the same medium used for pregrowth was also used for the growth curve experiment, albeit with different glucose concentrations depending on the experimental design. With compound administration, the final concentration of DMSO never exceeded 0.1%. Typically, at least four technical repeats were included per condition.

In the case of `c1ccn2c(Sc3ncnc4sccc34)nnc2c1` [46A], in the assay with tps1Δ cells, the “Rescue of the tps1Δ strain on 2.5 mM glucose at 100 μM” value (“Rescue of the tps1Δ strain” for short) is on record as “No”. The “Selected from primary screen for growth inhibition of A549 cells at 50 μM” value in assay [1] was “No”.
For `Cc1nc(N2CCN(CCO)CC2)c2c(-c3cccs3)csc2n1` [25B], in the assay with tps1Δ cells, the “Rescue of the tps1Δ strain” value is recorded as “No”. The “Selected from primary screen for growth inhibition of A549 cells at 50 μM” value in assay [1] is listed as “No”.
As to `c1ccc(-c2cc3c(N4CCCC4c4nnc5n4CCCCC5)ncnc3s2)cc1` (stereo not drawn) [22A], the “Rescue of the tps1Δ strain” value in the assay on tps1Δ cells is “No”. For the same compound, the “Selected from primary screen for growth inhibition of A549 cells at 50 μM” value in assay [1] was “No”.
Turning to `Cc1nc(SCC(=O)N2CC(C)OC(C)C2)c2c(C)c(C)sc2n1` (stereo not drawn) [7C], the “Rescue of the tps1Δ strain” value with tps1Δ cells was “No”. In addition, in assay [1], the “Selected from primary screen for growth inhibition of A549 cells at 50 μM” value was “Yes” and the “Selected for having an IC50 ratio (10 mM glucose: 1 mM glucose) of A549 growth higher than WBC-A” value (“Selected for having an IC50 ratio” below) is “Higher IC50 ratio, but false-positive”.
For `COc1ccccc1-n1ncc2c(C)nnc(SCC(N)=O)c21` [68C], in the assay with tps1Δ cells, the “Rescue of the tps1Δ strain” value is “No”. The “Selected from primary screen for growth inhibition of A549 cells at 50 μM” value in assay [1] is on record as “No”.
In the case of `Cc1nc(SCC(=O)c2ccc3c(c2)NC(=O)CO3)c2c(-c3cccs3)csc2n1` [11C], the “Rescue of the tps1Δ strain” value in the assay with tps1Δ cells is given as “Yes”. Moreover, in assay [1], the “Selected from primary screen for growth inhibition of A549 cells at 50 μM” value is “Yes”; the “Selected for having an IC50 ratio” value was “Higher IC50 ratio and confirmed”.
As to `CSc1nc(C)nc2scc(-c3cccs3)c12` [45A], in the assay with tps1Δ cells, the “Rescue of the tps1Δ strain” value was “No”. The “Selected from primary screen for growth inhibition of A549 cells at 50 μM” value in assay [1] was “No”.
With `Cc1nc(SCC(=O)NC(=O)NCc2ccco2)c2c(-c3cccs3)csc2n1` [28B], the “Rescue of the tps1Δ strain” value in the assay with tps1Δ cells is recorded as “No”. In addition, the “Selected from primary screen for growth inhibition of A549 cells at 50 μM” value in assay [1] is reported as “No”.
In the case of `COC(=O)CSc1nc(C)nc2scc(-c3cccs3)c12` [53A], the “Rescue of the tps1Δ strain” value in the assay with tps1Δ cells was “Yes”. Also, in assay [1], the “Selected from primary screen for growth inhibition of A549 cells at 50 μM” value is on record as “No”.
On to `NC(=O)CSc1ncnc2scc(-c3ccccc3)c12` [82C], for which, in the assay with tps1Δ cells, the “Rescue of the tps1Δ strain” value is given as “No”. Besides, in assay [1], the “Selected from primary screen for growth inhibition of A549 cells at 50 μM” value is “No”.
As for `COc1ccc(-c2csc3nc(C)nc(Sc4nnc(-c5ccoc5C)n4C)c23)cc1OC` [20A], the “Rescue of the tps1Δ strain” value in the assay on tps1Δ cells was “No”. In assay [1], the “Selected from primary screen for growth inhibition of A549 cells at 50 μM” value is “Yes” and the “Selected for having an IC50 ratio” value is “Lower IC50 ratio”.
For the compound `COCCSc1nnc(C)c2cnn(-c3ccccc3)c12` [69C], the “Rescue of the tps1Δ strain” value in the assay with tps1Δ cells is reported as “No”. In assay [1], the “Selected from primary screen for growth inhibition of A549 cells at 50 μM” value is listed as “No”.
Take `COC(=O)CSc1nc(C)nc2sc3c(c12)CCC3` [14C]: the “Rescue of the tps1Δ strain” value with tps1Δ cells is “No”. Moreover, the “Selected from primary screen for growth inhibition of A549 cells at 50 μM” value in assay [1] is given as “No”.
For the compound `CCCc1nnc(Sc2nc(CN3CCOCC3)nc3scc(-c4cccs4)c23)[nH]1` [62C], the “Rescue of the tps1Δ strain” value with tps1Δ cells was “No”. Also, in assay [1], the “Selected from primary screen for growth inhibition of A549 cells at 50 μM” value is recorded as “Yes” and the “Selected for having an IC50 ratio” value was “Lower IC50 ratio”.
The like results for `CCC(c1nnc(Sc2nc(C)nc3scc(-c4cccs4)c23)n1Cc1ccccc1)N(C)C` (stereo not drawn) [52A] were, in that order, “No”, “Yes” and “Lower IC50 ratio”.
Regarding `OCCSc1ncnc2scc(-c3ccc(F)cc3)c12` [56C], the “Rescue of the tps1Δ strain” value in the assay with tps1Δ cells is “No”. For the same compound, in assay [1], the “Selected from primary screen for growth inhibition of A549 cells at 50 μM” value is listed as “No”.
On to `Cc1nnc(SCC(=O)N2CCOCC2)c2c1cnn2-c1ccccc1` [70C], for which the “Rescue of the tps1Δ strain” value with tps1Δ cells was “No”. Also, the “Selected from primary screen for growth inhibition of A549 cells at 50 μM” value in assay [1] is listed as “No”.
As for `CCCc1nnc(Sc2nc(C)nc3scc(-c4cccs4)c23)[nH]1` [50C], the “Rescue of the tps1Δ strain” value in the assay on tps1Δ cells is reported as “Yes”. In assay [1], the “Selected from primary screen for growth inhibition of A549 cells at 50 μM” value was “Yes” and the “Selected for having an IC50 ratio” value is listed as “Lower IC50 ratio”.
As for `Cc1ccc(-c2csc3ncnc(Sc4nnnn4C)c23)cc1` [57A], the “Rescue of the tps1Δ strain” value with tps1Δ cells is “No”. In assay [1], the “Selected from primary screen for growth inhibition of A549 cells at 50 μM” value was “Yes” and the “Selected for having an IC50 ratio” value is given as “Lower IC50 ratio”.
As to `Cc1nc(SCC(=O)Nc2ccc(OC(F)(F)F)cc2)c2c(-c3cccs3)csc2n1` [5C], the “Rescue of the tps1Δ strain” value in the assay with tps1Δ cells was “No”. Moreover, in assay [1], the “Selected from primary screen for growth inhibition of A549 cells at 50 μM” value is on record as “Yes” and the “Selected for having an IC50 ratio” value is given as “Lower IC50 ratio”.
As to `COc1ccc(-c2csc3nc(C)nc(SCCO)c23)cc1OC` [18C], in the assay with tps1Δ cells, the “Rescue of the tps1Δ strain” value was “No”. The “Selected from primary screen for growth inhibition of A549 cells at 50 μM” value in assay [1] is listed as “No”.
As to `OCCSc1ncnc2sc(-c3ccccc3)cc12` [30C], the “Rescue of the tps1Δ strain” value in the assay with tps1Δ cells was “No”. The “Selected from primary screen for growth inhibition of A549 cells at 50 μM” value in assay [1] was “No”.
For `Cc1nc(SCC(=O)NC(=O)NCCC(C)C)c2c(-c3cccs3)csc2n1` [49B], the “Rescue of the tps1Δ strain” value in the assay on tps1Δ cells is on record as “No”. In assay [1], the “Selected from primary screen for growth inhibition of A549 cells at 50 μM” value was “Yes” and the “Selected for having an IC50 ratio” value was “Lower IC50 ratio”.
Regarding `OCCSc1ncnc2sc3c(c12)CCC3` [17C], the “Rescue of the tps1Δ strain” value with tps1Δ cells is “No”. For the same compound, in assay [1], the “Selected from primary screen for growth inhibition of A549 cells at 50 μM” value was “No”.
As for `Cc1sc2nc(CN3CCC(C)CC3)nc(Sc3nnc(C4CC4)n3CCC(N)=O)c2c1C` [17A], the “Rescue of the tps1Δ strain” value in the assay with tps1Δ cells is “No”. For the same compound, in assay [1], the “Selected from primary screen for growth inhibition of A549 cells at 50 μM” value is given as “Yes” and the “Selected for having an IC50 ratio” value was “Lower IC50 ratio”.
As to `Cc1ccc(-c2csc3ncnc(Sc4nc(C5CCCCC5)n(-c5ccccc5)n4)c23)cc1` [1A], the “Rescue of the tps1Δ strain” value in the assay with tps1Δ cells was “No”. Further, the “Selected from primary screen for growth inhibition of A549 cells at 50 μM” value in assay [1] is reported as “No”.
As for `Cc1nc(SCC(=O)Nc2ccccc2-c2ccccc2)c2c(-c3cccs3)csc2n1` [13B], the “Rescue of the tps1Δ strain” value with tps1Δ cells was “No”. Moreover, in assay [1], the “Selected from primary screen for growth inhibition of A549 cells at 50 μM” value is given as “Yes” and the “Selected for having an IC50 ratio” value is listed as “Higher IC50 ratio, but false-positive”.
On to `Cc1nc(Sc2nnnn2Cc2ccco2)c2c(-c3cccs3)csc2n1` [35C], for which, in the assay on tps1Δ cells, the “Rescue of the tps1Δ strain” value is reported as “No”. Besides, in assay [1], the “Selected from primary screen for growth inhibition of A549 cells at 50 μM” value is listed as “Yes” and the “Selected for having an IC50 ratio” value is on record as “Lower IC50 ratio”.
On to `CCn1c(CN)nnc1Sc1nc(-c2ccccc2)nc2scc(-c3ccccc3)c12` [37A], for which, in the assay with tps1Δ cells, the “Rescue of the tps1Δ strain” value was “No”. For the same compound, in assay [1], the “Selected from primary screen for growth inhibition of A549 cells at 50 μM” value was “No”.
For `Cc1nc(N(C)Cc2nnc3n2CCCCC3)c2c(-c3ccccc3)csc2n1` [33A], the “Rescue of the tps1Δ strain” value in the assay with tps1Δ cells is “No”. For the same compound, the “Selected from primary screen for growth inhibition of A549 cells at 50 μM” value in assay [1] is listed as “No”.
`c1nc(SCCN2CCOCC2)c2c3c(sc2n1)CCCC3` [84C]: the “Rescue of the tps1Δ strain” value with tps1Δ cells was “No”. Further, in assay [1], the “Selected from primary screen for growth inhibition of A549 cells at 50 μM” value is “No”.
For the compound `Cc1cc(NC(=O)CSc2nnc(C)c3cnn(-c4ccccc4)c23)no1` [72C], in the assay with tps1Δ cells, the “Rescue of the tps1Δ strain” value was “No”. The “Selected from primary screen for growth inhibition of A549 cells at 50 μM” value in assay [1] is “No”.
As to `OCCSc1ncnc2sc3c(c12)CCCC3` [27C], in the assay on tps1Δ cells, the “Rescue of the tps1Δ strain” value is recorded as “No”. Besides, the “Selected from primary screen for growth inhibition of A549 cells at 50 μM” value in assay [1] is reported as “No”.
For `CCN(CC)CCSc1ncnc2scc(-c3ccccc3)c12` [36C], in the assay on tps1Δ cells, the “Rescue of the tps1Δ strain” value is “No”. Also, in assay [1], the “Selected from primary screen for growth inhibition of A549 cells at 50 μM” value is listed as “Yes” and the “Selected for having an IC50 ratio” value was “Lower IC50 ratio”.
The like results for `COc1ccc(-c2csc3nc(C)nc(Sc4nccn4C)c23)cc1OC` [42A] were, in that order, “No”, “Yes” and “Lower IC50 ratio”.
As to `CSc1nc(SCCO)c2c3c(sc2n1)COC(C)(C)C3` [81C], the “Rescue of the tps1Δ strain” value with tps1Δ cells is recorded as “No”. Moreover, in assay [1], the “Selected from primary screen for growth inhibition of A549 cells at 50 μM” value was “Yes” and the “Selected for having an IC50 ratio” value is recorded as “Lower IC50 ratio”.
